Experimental data published in PMC10797628.
Values joined by “and” are separate entries in the source; they are usually repeats but may differ in a detail not shown here. Equal values may be shown once. Read-outs that look alike come from different tables or passages of the source.

Experiments:
human 5-HT1B receptor [1] = molecular target: T1, human 5-HT1B receptor (Homo sapiens, UniProt P28222); assay: Radioligand binding (saturation and competition), WT 5-HT1B; conditions: for higher affinity at 5-HT1B over 5-HT1A receptors: affinity ratio
T1 construct: host or cells: HEK293T

human 5-HT1A receptor = molecular target: T2, human 5-HT1A receptor (Homo sapiens, UniProt P08908); assay: cAMP accumulation (LANCE Ultra TR-FRET) in HEK293T cells, WT 5-HT1A; type: cell-based; conditions: for Emax: HEK-293T; for EC50: cAMP accumulation, HEKt cells, mean ± SD
T2 construct: host or cells: HEK293T
T2 sequence (P08908 1-422): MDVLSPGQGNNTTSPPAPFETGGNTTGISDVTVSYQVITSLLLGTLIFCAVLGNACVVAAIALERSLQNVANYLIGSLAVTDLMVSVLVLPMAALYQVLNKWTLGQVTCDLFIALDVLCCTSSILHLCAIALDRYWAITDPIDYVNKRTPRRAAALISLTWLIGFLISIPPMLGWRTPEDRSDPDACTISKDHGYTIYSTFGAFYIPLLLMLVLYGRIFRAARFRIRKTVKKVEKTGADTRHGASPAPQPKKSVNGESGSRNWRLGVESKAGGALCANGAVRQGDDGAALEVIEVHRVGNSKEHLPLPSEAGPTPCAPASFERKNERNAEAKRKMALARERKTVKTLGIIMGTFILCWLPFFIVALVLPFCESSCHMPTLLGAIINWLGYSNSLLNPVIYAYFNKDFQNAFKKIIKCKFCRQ
Description: (§1) Briefly, cells transfected with the desired receptor construct and compounds were incubated in the dark for 90 min at 37 °C. After incubation, cAMP detection reagents were added, and TR-FRET was used to quantify the cAMP produced.
(§2) The functional activity of compounds was determined by stimulating cells expressing the desired receptor with FSK and test compound in parallel with 12 known concentrations of cAMP. The known concentrations of cAMP were used to create a standard curve for each experiment that was used to interpolate the unknown values of cAMP in wells with test compounds. […] The EC50 and EMAX values were determined using the “dose response – log[agonist] vs response (three parameter)” nonlinear regression model in Prism and transformed to pEC50 values, reported as mean ± SD.
(§3) Summary of functional assay conditions at various 5-HT1 receptor point mutation constructs.

human 5-HT1B receptor [2] = molecular target: T1, human 5-HT1B receptor; assay: cAMP accumulation (LANCE Ultra TR-FRET) in HEK293T cells, WT 5-HT1B; type: cell-based; conditions: for EC50: cAMP accumulation, HEKt cells, mean ± SD; for Emax: HEK-293T
Description: as §1, §2, §3

human 5-HT1D receptor = molecular target: T3, human 5-HT1D receptor (Homo sapiens, UniProt P28221); assay: cAMP accumulation (LANCE Ultra TR-FRET) in HEK293T cells, WT 5-HT1D; type: cell-based; conditions: for Emax: HEK-293T; for higher functional potency at 5-HT1D over 5-HT1A receptors: cAMP potency ratio; for EC50: cAMP accumulation, HEKt cells, mean ± SD
T3 construct: host or cells: HEK293T
Description: as §1, §2, §3

Y5.38F 5-HT1B receptor = molecular target: T4, Y5.38F 5-HT1B receptor (Homo sapiens, UniProt P28222, Y208F); assay: cAMP accumulation in HEK293T cells, Y5.38F 5-HT1B; type: cell-based; conditions: point-mutated receptor, 3 independent experiments, read-out: pEC50 5-HT1B Receptor Y5.38F (converted)
T4 construct: host or cells: HEK293T
Description: as §1, §2
(§4) Cell Type Receptor Cell Density [Forskolin] Incubation time
as §3

S5.42A 5-HT1B receptor [3] = molecular target: T5, S5.42A 5-HT1B receptor (Homo sapiens, UniProt P28222, S212A); assay: cAMP accumulation in HEK293T cells, S5.42A 5-HT1B; type: cell-based; parameters: host or cells: HEK293T; conditions: point-mutated receptor, 3 independent experiments, read-out: pEC50 5-HT1B Receptor S5.42A (converted)
Description: as §1, §2, §4, §3

V45.52I 5-HT1D receptor [4] = molecular target: T6, V45.52I 5-HT1D receptor (Homo sapiens, UniProt P28221, V190I); assay: cAMP accumulation in HEK293T cells, V45.52I 5-HT1D; type: cell-based; parameters: host or cells: HEK293T; conditions: point-mutated receptor, 3 independent experiments, read-out: pEC50 5-HT1D Receptor V45.52I (converted)
Description: as §1, §2, §4, §3

T7.39N 5-HT1D receptor [5] = molecular target: T7, T7.39N 5-HT1D receptor (Homo sapiens, UniProt P28221, T342N); assay: cAMP accumulation in HEK293T cells, T7.39N 5-HT1D; type: cell-based; parameters: host or cells: HEK293T; conditions: point-mutated receptor, 3 independent experiments, read-out: pEC50 5-HT1D Receptor N7.39T (converted)
Description: as §1, §2, §4, §3

Y5.38F 5-HT1D receptor [6] = molecular target: T8, Y5.38F 5-HT1D receptor (Homo sapiens, UniProt P28221, Y197F); assay: cAMP accumulation in HEK293T cells, Y5.38F 5-HT1D; type: cell-based; parameters: host or cells: HEK293T; conditions: point-mutated receptor, 3 independent experiments, read-out: pEC50 5-HT1D Receptor Y5.38F (converted)
Description: as §1, §2, §3

Y5.38A 5-HT1D receptor [7] = molecular target: T9, Y5.38A 5-HT1D receptor (Homo sapiens, UniProt P28221, Y197A); assay: cAMP accumulation in HEK293T cells, Y5.38A 5-HT1D; type: cell-based; parameters: host or cells: HEK293T; conditions: point-mutated receptor, 3 independent experiments, read-out: pEC50 5-HT1D Receptor Y5.38A (converted)
Description: as §1, §2, §3

T7.39N 5-HT1B receptor = T7.39N 5-HT1B receptor (Homo sapiens, UniProt P28222, T355N); assay: Radioligand binding, T7.39N 5-HT1B
Description: (§5) 48 hours after transfection with the desired receptor construct, cells were isolated for saturation and competition binding assays as previously described.[47],[48],[57] Saturation and competition radioligand binding assays were conducted in an assay buffer consisting of 50 mM Tris HCl, 10 mM MgCl2, and 0.1 mM EDTA in filtered deionized water. […] Briefly, 5–10 μg of the receptor protein, as determined by a Thermo Fisher Pierce BCA protein assay kit, was incubated with 8 concentrations of radioligand in triplicate to determine total binding. […] Nonspecific binding was determined as above for saturation assays.
(§6) For radioligand binding data, nonspecific binding was subtracted from the total binding to get specific binding. Saturation binding data was fit to the “binding saturation-specific binding with hill slope” model. Competition binding data were fit to the “binding competition-one-site fit Ki” non-linear regression model and transformed to pKi values, reported as mean ± SD.
(§7) is 50 mM Tris HCl, 10 mM MgCl2 and 0.1 mM EDTA in filtered deionized water.

S5.42A 5-HT1B receptor [8] = molecular target: T5, S5.42A 5-HT1B receptor; assay: Radioligand binding, S5.42A 5-HT1B
Description: as §5, §6, §7

T7.39N 5-HT1D receptor [9] = molecular target: T7, T7.39N 5-HT1D receptor; assay: Radioligand binding, T7.39N 5-HT1D
Description: as §5, §6, §7

Y5.38F 5-HT1D receptor [10] = molecular target: T8, Y5.38F 5-HT1D receptor; assay: Radioligand binding, Y5.38F 5-HT1D
Description: as §5, §6, §7

Y5.38A 5-HT1D receptor [11] = molecular target: T9, Y5.38A 5-HT1D receptor; assay: Radioligand binding, Y5.38A 5-HT1D
Description: as §5, §6, §7

S5.42A 5-HT1D receptor = S5.42A 5-HT1D receptor (Homo sapiens, UniProt P28221, S201A); assay: Radioligand binding, S5.42A 5-HT1D
Description: as §5, §6, §7

V45.52I 5-HT1D receptor [12] = molecular target: T6, V45.52I 5-HT1D receptor; assay: Radioligand binding, V45.52I 5-HT1D
Description: as §5, §6, §7

V45.52I 5-HT1B receptor = V45.52I 5-HT1B receptor (Homo sapiens, UniProt P28222, V201I); assay: cAMP accumulation in HEK293T cells, V45.52I 5-HT1B; type: cell-based; parameters: mutated in house (Quikchange II) HTR01B0000; host or cells: HEK293T; conditions: point-mutated receptor, 3 independent experiments, read-out: pEC50 5-HT1B Receptor V45.52I (converted)
Description: as §1, §2, §4, §3

[13] = read-out: 5-HT1A EMAX (%), WT receptor, normalized to basal (0%) and 10 μM 5-CT (100%)
[14] = read-out: 5-HT1B EMAX (%), WT receptor, normalized to basal (0%) and 10 μM 5-CT (100%)
[15] = read-out: 5-HT1D EMAX (%), WT receptor, normalized to basal (0%) and 10 μM 5-CT (100%)

T1 sequence (P28222 whole entry): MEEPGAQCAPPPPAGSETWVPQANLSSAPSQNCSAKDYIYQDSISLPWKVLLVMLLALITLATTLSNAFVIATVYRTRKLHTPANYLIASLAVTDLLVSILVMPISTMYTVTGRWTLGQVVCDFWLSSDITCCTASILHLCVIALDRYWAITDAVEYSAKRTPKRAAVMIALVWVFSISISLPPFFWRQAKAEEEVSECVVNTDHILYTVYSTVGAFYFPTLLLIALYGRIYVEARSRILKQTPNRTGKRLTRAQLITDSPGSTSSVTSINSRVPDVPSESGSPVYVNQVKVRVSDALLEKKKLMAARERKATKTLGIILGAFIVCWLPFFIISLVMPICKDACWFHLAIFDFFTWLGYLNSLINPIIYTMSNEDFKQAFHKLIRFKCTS
T8 sequence (P28221 whole entry Y197F): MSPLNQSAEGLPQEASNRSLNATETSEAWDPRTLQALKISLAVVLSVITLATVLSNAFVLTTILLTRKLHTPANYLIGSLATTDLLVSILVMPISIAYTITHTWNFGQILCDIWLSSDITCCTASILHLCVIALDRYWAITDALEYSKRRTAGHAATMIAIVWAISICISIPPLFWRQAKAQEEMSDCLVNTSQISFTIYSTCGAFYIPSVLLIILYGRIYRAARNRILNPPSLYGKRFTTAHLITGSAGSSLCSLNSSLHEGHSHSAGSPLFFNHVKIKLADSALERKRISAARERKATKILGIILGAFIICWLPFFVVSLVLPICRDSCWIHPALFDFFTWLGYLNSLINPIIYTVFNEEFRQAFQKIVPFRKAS
T5 sequence (P28222 whole entry S212A): as the sequence (P28222 whole entry) above, with S212A counted along it
T4 sequence (P28222 whole entry Y208F): as the sequence (P28222 whole entry) above, with Y208F counted along it
Sequence of V45.52I 5-HT1B receptor (P28222 whole entry V201I): as the sequence (P28222 whole entry) above, with V201I counted along it
T9 sequence (P28221 whole entry Y197A): as the sequence (P28221 whole entry Y197F) above, with F197A counted along it
T3 sequence (P28221 whole entry): as the sequence (P28221 whole entry Y197F) above, with F197Y counted along it
Sequence of T7.39N 5-HT1B receptor (P28222 whole entry T355N): as the sequence (P28222 whole entry) above, with T355N counted along it
T7 sequence (P28221 whole entry T342N): as the sequence (P28221 whole entry Y197F) above, with F197Y, T342N counted along it
T6 sequence (P28221 whole entry V190I): as the sequence (P28221 whole entry Y197F) above, with V190I, F197Y counted along it
Sequence of S5.42A 5-HT1D receptor (P28221 whole entry S201A): as the sequence (P28221 whole entry Y197F) above, with F197Y, S201A counted along it

| SMILES | higher affinity at 5-HT1B over 5-HT1A receptors (human 5-HT1B receptor [1]) [fold] | Emax (human 5-HT1A receptor; [13]) [%] | EC50 (human 5-HT1B receptor [2]; 5-HT1B pEC50, WT receptor) [nM] | Emax (human 5-HT1B receptor [2]; [14]) [%] | Emax (human 5-HT1D receptor; [15]) [%] | higher functional potency at 5-HT1D over 5-HT1A receptors (human 5-HT1D receptor) [fold] | EC50 (Y5.38F 5-HT1B receptor) [nM] | EC50 (S5.42A 5-HT1B receptor [3]) [nM] | EC50 (V45.52I 5-HT1D receptor [4]) [nM] | EC50 (T7.39N 5-HT1D receptor [5]) [nM] | EC50 (Y5.38F 5-HT1D receptor [6]) [nM] | EC50 (Y5.38A 5-HT1D receptor [7]) [nM] | Ki (T7.39N 5-HT1B receptor) [nM] | Ki (S5.42A 5-HT1B receptor [8]) [nM] | Ki (T7.39N 5-HT1D receptor [9]) [nM] | Ki (Y5.38F 5-HT1D receptor [10]) [nM] | Ki (Y5.38A 5-HT1D receptor [11]) [nM] | Ki (S5.42A 5-HT1D receptor) [nM] | Ki (V45.52I 5-HT1D receptor [12]) [nM] | EC50 (V45.52I 5-HT1B receptor) [nM] | also measured |
| --- | --- | --- | --- | --- | --- | --- | --- | --- | --- | --- | --- | --- | --- | --- | --- | --- | --- | --- | --- | --- | --- |
| CN(C)[C@H]1CCc2c(cccc2-c2ccccc2F)C1 [(S)-FPT] | 2 | 90 ± 2 | 0.49 | > 90 | 103 ± 3 | ~80 | 0.813 | 1.02 | 1.48 | 14.1 | 1.55 | 1.45 | 7.41 | 2.57 | 10.7 | 1.29 | 1.07 | 1.29 | 1.05 | 0.776 | 5-HT1B EMAX (%) (human 5-HT1B receptor [2]; WT receptor, normalized to basal (0%) and 10 μM 5-CT (100%)): 100 ± 2% |
| CN(C)[C@H]1CCc2c(cccc2-c2cccc3ccccc23)C1 [(S)-NAP] | 10 | 72 ± 4 | 34.7 | 30 ± 4 | 90 ± 3 | ~40 | 35.5 | 35.5 | 257 | 10 | 11.2 | 288 | 6.46 | 5.89 | 1.07 | 0.661 | 70.8 | 1.17 | 37.2 | 224 | Ki (human 5-HT1B receptor [1]; Affinity (pKi ± SD) 5-HT1B, WT receptor, [^3H]5-CT competition, mean ± SD): 4.57 nM; EC50 (human 5-HT1A receptor; 5-HT1A pEC50, WT receptor): 389 nM; higher functional potency at 5-HT1B over 5-HT1A receptors (human 5-HT1B receptor [2]; cAMP potency ratio): about 10 fold; EC50 (human 5-HT1D receptor; 5-HT1D pEC50, WT receptor): 8.71 nM |
| Fc1ccccc1-c1cccc2c1CC[C@H](N1CCCC1)C2 [(S)-PFPT] |  |  |  |  |  |  | 55 | 316 | 58.9 | 18.6 | 240 | 191 | 5.89 | 102 | 4.17 | 41.7 | 42.7 | 41.7 | 14.8 | 51.3 | Ki (human 5-HT1B receptor [1]; read-out: Affinity (pKi ± SD) 5-HT1B (converted)): 12 nM; Emax (human 5-HT1A receptor; read-out: 5-HT1A EMAX (%)): 100 ± 2%; EC50 (human 5-HT1A receptor; WT receptor, read-out: 5-HT1A pEC50 (converted)): 1.66 nM; higher functional potency at 5-HT1A over 5-HT1B and 5-HT1D receptors (human 5-HT1A receptor; cAMP potency ratio): ~40 fold and 35 fold; Emax (human 5-HT1B receptor [2]; read-out: 5-HT1B EMAX (%)): 99 ± 2%; EC50 (human 5-HT1B receptor [2]; WT receptor, read-out: 5-HT1B pEC50 (converted)): 56.2 nM; Emax (human 5-HT1D receptor; read-out: 5-HT1D EMAX (%)): 98 ± 3%; EC50 (human 5-HT1D receptor; WT receptor, read-out: 5-HT1D pEC50 (converted)): 57.5 nM |
